Experimental data published in patent publication US20070082397A1, “Ex vivo progenitor and stem cell expansion for use in the treatment of disease of endodermally-derived organs” (priority 2003, published 2007).
Entries after “also recorded” stand apart in the source; their conditions may differ.

Key:
[1] = cited from earlier work
[2] = test system: hepatocytes from adult mouse livers; assay: Primary adult mouse hepatocyte culture: expansion of hepatic stem (oval) cells; type: cell-based; settings: for oval cells in hepatocyte culture: medium supplemented with 10 μM AGN 194310 or TEPA 10 μM, FIG. 1; for growth of cultured hepatocytes and appearance of hepatic stem (oval) cells: primary culture with EGF and HGF, TEPA 10 μM or AGN 194310 10 μM, compared with control cultures without additions
Procedure: Intact livers were harvested from 3 week old VLVC female mice (Harlan Laboratories, Jerusalem, Israel), dissected and washed twice with DMEM (Beit Haemek, Israel), incubated with DMEM in the presence 0.05% collagenase for 30 minutes at 37° C., ground and passed through a 200 μm mesh sieve, yielding individual hepatocytes. Cells were washed twice and viability was ascertained with trypan blue. Cells were plated in collagen-coated, 35 mm tissue culture plates at a density of 4-×10^4 live cells/ml in F12 media (containing 15 mM Hepes, 0.1% glucose, 10 mM sodium bicarbonate, 100 units/ml penicillin-streptomycin, glutamine, 0.5 units/ml insulin, 7.5 m cg/ml hydrocortisone, and 10% fetal bovine serum). Medium was changed after 12 hours, the cells were washed twice with phosphate buffered saline (PBS) and new medium was added. Medium was changed twice a week.
Hepatocytes were also grown in the presence of Epidermal Growth Factor (EGF), Platelet-Derived Growth Factor β chain (PDGF-BB), Fibroblast growth Factors (FGF-4) and Hepatocyte Growth Factor (HGF), at 20-50 ng/ml each, for the entire culturing period according to the method of Schwartz et al. (Schwartz R E, Reyes M, Koodie L, Jiang Y, Blackstad M, Lund T, Lenvik T, Johnson S, Hu W S, Verfaillie C M. Multipotent adult progenitor cells from bone marrow differentiate into functional hepatocyte-like cells. J Clin Invest. 2002; 109 (10): 1291-302). Hepatocytes were also grown in serum free medium according to the method of Runge et al. (Runge D, Runge D M, Jager D, Lubecki K A, Beer Stolz D, Karathanasis S, Kietzmann T, Strom S C, Jungermann K, Fleig W E, Michalopoulos G K. Serum-free, long-term cultures of human hepatocytes: maintenance of cell morphology, transcription factors, and liver-specific functions. Biochem Biophys Res Commun. 2000; 269(1): 46-53).
In all of the above-mentioned hepatocytes culture conditions, cells are grown in the presence or absence of the retinoic acid antagonist AGN 194310 or the transition metal chelator tetraethylenepentamine TEPA) at 10^−5 M.
After a period of 3 weeks, cultures treated with 10^−5 M AGN 194310 or TEPA were detached with 0.25% trypsin, split and replated at a 1:2 ratio. The cells were visualized with Giemsa staining.
Murine hepatocyte cultures supplemented with EGF and HGF were evaluated as primary cultures, or following first and second passages. First passage cultures were grown for 2 weeks, split 1:2 and cells stained 8 days later. Second passage cultures were similarly grown for 2 weeks, split 1:2, and grown for an additional week, then split 1:4 and similarly stained 4 days later.
Hepatocytes and ex-vivo expanded cells were fixed in methanol directly in their cell culture plates and each procedure performed by standard procedures as outlined below.
Ex-vivo expanded cells and hepatocytes were stained with Giemsa stain, according to manufacturer's instructions (Shandon, Pittsburg, Pa.) for 4 minutes at room temperature, washed in buffer solution for 4 minutes, washed 3-4 times with rinse solution and visualized by light microscopy. Nuclei were stained with hematoxylin (Dako, Carpinteria, Calif.).

[3] = test system: cord-blood-derived, bone marrow-derived, and peripheral blood derived stem and progenitor cells; settings: grown without a feeder layer; cited from earlier work
[4] = test system: erythroid progenitor cells, cultured mouse erythroleukemia cells, embryonal stem cells, and hepatocytes in primary hepatocyte culture; settings: cited from earlier work
[5] = test system: stem and progenitor hematopoietic cells; settings: cited from earlier work

SMILES | membrane permeability [1] | oval cells in hepatocyte culture [2] | growth of cultured hepatocytes and appearance of hepatic stem (oval) cells [2] | persistence of treated hepatocyte cultures in culture ([2]; primary hepatocyte cultures) | fraction of CD34+ cells and their long-term clonability [3] | proliferation and differentiation [4] | long term ex vivo stem cell proliferation and differentiation [5]
O=c1cc(N2CCOCC2)oc2c(-c3ccccc3)cccc12 [LY294002] | membrane permeable | – | – | – | – | – | –
NCCNCCNCCNCCN [TEPA, tetraethylenepentamine] | – | abundance of oval cells; also recorded: increase in the proportion of oval cells | clearly induced growth of the cultured hepatocytes, and the appearance of hepatic stem (oval) cells | at least 3 weeks | greatly enhanced the fraction of CD34^+ cell and their long-term clonability | Facilitation of proliferation while inhibiting differentiation | effective promotion of long term ex vivo stem cell proliferation, while inhibiting differentiation
CCc1ccc(C2=CC(C)(C)Sc3ccc(C#Cc4ccc(C(=O)O)cc4)cc32)cc1 [AGN 194310] | – | abundance of oval cells | clearly induced growth of the cultured hepatocytes, and the appearance of hepatic stem (oval) cells | – | – | – | –
